Experiment [1] relates to Rattus norvegicus. The experiment is described as follows: Dose required for producing 50% block of avoidance responding in rats after peroral administration. It is filed as functional.
Experiment [2] has as its system Rattus norvegicus. Nature of the experiment: Dose required for producing 20% block of escape responding in rats after peroral administration. It is filed as functional.

Some results are limits rather than exact numbers.

Molecule `CCc1c(C)[nH]c2c1C(=O)C1CN(C)CCC1C2.Cl` (racemic) registered an ABD50 in the experiment on Rattus norvegicus [1] of 0.72 mg/kg. In the experiment on Rattus norvegicus [2], this molecule gave an EBD20 of 9.8 mg/kg.
`CCc1c(C)[nH]c2c1C(=O)[C@@H]1CN(C)CC[C@H]1C2.Cl` gave an ABD50 in the experiment on Rattus norvegicus [1] of more than 6 mg/kg.
`CCc1c(C)[nH]c2c1C(=O)[C@H]1CN(C)CC[C@@H]1C2.Cl`: in the experiment with Rattus norvegicus [1], the ABD50 came out at 0.49 mg/kg. Also, the EBD20 with Rattus norvegicus [2] stood at 3.6 mg/kg.
On the same counts, the results for `O=C(CCCN1CCC(O)(c2ccc(Cl)cc2)CC1)c1ccc(F)cc1` [HALOPERIDOL] are 0.35 mg/kg and 2.7 mg/kg.
Take `CCc1c(C)[nH]c2c1C(=O)C(CN1CCOCC1)CC2` (centres undefined) [MOLINDONE]: the ABD50 with Rattus norvegicus [1] came out at 3.6 mg/kg. In the experiment with Rattus norvegicus [2], the EBD20 was found to be 17.1 mg/kg.

The record behind these values is ChEMBL document CHEMBL1121689, “A dopamine receptor model and its application in the design of a new class of rigid pyrrolo[2,3-g]isoquinoline antipsychotics” (1981).
